# According to ChEMBL document CHEMBL1201862, “PubChem BioAssay data set” (2004):
# Calls of active or inactive are those of the source.
# Key:
# Fatty acid synthase [1] = target: T1, Fatty acid synthase (Homo sapiens, UniProt P49327); test: inhibition of human FAS-TE enzyme activity – biochemical, endpoint fluorescence intensity, uHTS hits, dose response (AID 624327); assay type: functional;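 also: fluorescence from hydrolysis of an O-methyl fluorescein acyl ester substrate by the enzyme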
# Fatty acid synthase [2] = target: T1, Fatty acid synthase; test: inhibition of human FAS-TE enzyme activity – biochemical, kinetic fluorescence intensity, dose response (AID 624326); assay type: functional;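 also: rate of fluorescence rise from hydrolysis of a fluorogenic O-methyl fluorescein ester substrate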
# Cytochrome P450 2C19 = Cytochrome P450 2C19 (Homo sapiens, UniProt P33261); test: Cytochrome panel assay with activity outcomes. Panel member name: p450-cyp2c19 Compounds with AC50 equal or less than 10 uM are considered active; assay type: functional; conditions: read-out: AC50
# Cytochrome P450 2D6 = Cytochrome P450 2D6 (Homo sapiens, UniProt P10635);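 also: CYP2D6 member of a cytochrome P450 panel assay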
# Cytochrome P450 1A2 = target: T2, Cytochrome P450 1A2 (Homo sapiens, UniProt P05177);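 also: PubChem cytochrome P450 panel assay, CYP1A2 panel member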
# T2 sequence (P05177 whole entry): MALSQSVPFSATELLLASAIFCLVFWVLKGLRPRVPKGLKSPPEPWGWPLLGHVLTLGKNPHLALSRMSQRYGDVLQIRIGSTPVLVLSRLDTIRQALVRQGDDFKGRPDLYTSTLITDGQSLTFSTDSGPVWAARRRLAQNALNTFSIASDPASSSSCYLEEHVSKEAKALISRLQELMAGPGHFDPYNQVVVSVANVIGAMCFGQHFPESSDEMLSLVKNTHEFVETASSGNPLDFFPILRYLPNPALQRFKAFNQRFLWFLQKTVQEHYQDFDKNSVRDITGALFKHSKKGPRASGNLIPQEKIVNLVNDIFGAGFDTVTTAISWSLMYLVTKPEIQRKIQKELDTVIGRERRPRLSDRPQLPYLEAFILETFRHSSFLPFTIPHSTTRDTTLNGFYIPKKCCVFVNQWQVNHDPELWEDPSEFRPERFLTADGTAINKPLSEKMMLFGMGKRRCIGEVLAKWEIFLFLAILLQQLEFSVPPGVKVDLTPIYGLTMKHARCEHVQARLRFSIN
# Cytochrome P450 3A4 = Cytochrome P450 3A4 (Homo sapiens, UniProt P08684);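 also: CYP3A4 tested as one member of a cytochrome P450 panel screen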
# Cytochrome P450 2C9 = Cytochrome P450 2C9 (Homo sapiens, UniProt P11712)
# [3] = target: T3, Replicative DNA helicase DnaB (Mycobacterium tuberculosis, UniProt P9WMR3); test: DnaB intein splicing inhibitors, dose response, biochemical, cell-free fluorescence (AID 449749); assay type: functional
# T3 sequence (P9WMR3 whole entry): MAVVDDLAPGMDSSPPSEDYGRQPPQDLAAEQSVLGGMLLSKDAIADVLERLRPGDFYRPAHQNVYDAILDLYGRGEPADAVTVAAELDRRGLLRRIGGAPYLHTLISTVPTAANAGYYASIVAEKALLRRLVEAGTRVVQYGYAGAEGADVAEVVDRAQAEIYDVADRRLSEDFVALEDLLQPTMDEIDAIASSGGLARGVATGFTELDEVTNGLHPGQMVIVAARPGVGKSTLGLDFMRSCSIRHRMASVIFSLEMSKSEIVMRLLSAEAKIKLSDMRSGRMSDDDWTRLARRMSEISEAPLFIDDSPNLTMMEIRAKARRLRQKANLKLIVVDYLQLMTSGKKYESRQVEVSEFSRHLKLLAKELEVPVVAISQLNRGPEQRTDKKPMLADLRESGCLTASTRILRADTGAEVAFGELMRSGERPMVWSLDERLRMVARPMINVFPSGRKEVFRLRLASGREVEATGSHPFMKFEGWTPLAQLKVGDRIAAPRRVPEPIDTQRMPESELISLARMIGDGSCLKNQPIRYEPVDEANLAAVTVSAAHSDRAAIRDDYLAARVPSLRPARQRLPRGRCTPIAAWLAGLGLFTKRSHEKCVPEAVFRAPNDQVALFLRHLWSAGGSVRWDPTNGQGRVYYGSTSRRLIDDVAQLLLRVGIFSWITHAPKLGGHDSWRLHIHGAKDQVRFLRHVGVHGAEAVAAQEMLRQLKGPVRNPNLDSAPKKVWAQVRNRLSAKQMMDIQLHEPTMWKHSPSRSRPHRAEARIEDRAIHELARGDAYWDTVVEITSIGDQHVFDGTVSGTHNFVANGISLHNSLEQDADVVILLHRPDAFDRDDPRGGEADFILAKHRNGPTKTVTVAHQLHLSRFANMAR
# Protein RecA = target: T4, Protein RecA (Mycobacterium tuberculosis, UniProt P9WHJ3); test: Fluorescence Cell-Free Homogeneous Dose Retest to Identify Inhibitors of RecA-Intein Splicing Activity. [Related pubchem assays (depositor defined):AID2097, AID2223, AID489010, AID492950]; assay type: functional
# T4 sequence (P9WHJ3 whole entry): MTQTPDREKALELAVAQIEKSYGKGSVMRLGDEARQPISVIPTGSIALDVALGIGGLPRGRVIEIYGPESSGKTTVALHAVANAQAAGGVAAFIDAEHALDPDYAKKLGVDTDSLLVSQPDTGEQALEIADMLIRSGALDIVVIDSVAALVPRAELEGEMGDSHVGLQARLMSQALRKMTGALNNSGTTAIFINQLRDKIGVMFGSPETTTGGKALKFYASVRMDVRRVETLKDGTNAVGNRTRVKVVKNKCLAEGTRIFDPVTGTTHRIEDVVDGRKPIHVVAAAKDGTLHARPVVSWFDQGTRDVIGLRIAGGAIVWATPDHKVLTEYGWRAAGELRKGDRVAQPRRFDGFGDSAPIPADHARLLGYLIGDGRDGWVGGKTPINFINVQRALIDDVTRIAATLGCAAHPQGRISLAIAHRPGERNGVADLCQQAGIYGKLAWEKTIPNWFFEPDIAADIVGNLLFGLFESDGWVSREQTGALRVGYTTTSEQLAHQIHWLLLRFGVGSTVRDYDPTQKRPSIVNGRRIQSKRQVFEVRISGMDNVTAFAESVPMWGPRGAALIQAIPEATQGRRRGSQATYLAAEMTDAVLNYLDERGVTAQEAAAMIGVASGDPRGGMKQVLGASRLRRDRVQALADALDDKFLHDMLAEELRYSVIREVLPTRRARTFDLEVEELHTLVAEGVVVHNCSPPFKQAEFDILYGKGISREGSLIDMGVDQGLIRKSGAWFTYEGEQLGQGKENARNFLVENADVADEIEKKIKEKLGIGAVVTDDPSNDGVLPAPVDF
# [4] = target: T5, Rac GTPase-activating protein 1 (Homo sapiens, UniProt Q9H0H5); test: blockers of MgcRacGAP-driven Rac1 GTP hydrolysis – biochemical, ADP Hunter fluorescence, primary and confirmatory, confirmation (AID 624330); assay type: functional
# T5 sequence (Q9H0H5 whole entry): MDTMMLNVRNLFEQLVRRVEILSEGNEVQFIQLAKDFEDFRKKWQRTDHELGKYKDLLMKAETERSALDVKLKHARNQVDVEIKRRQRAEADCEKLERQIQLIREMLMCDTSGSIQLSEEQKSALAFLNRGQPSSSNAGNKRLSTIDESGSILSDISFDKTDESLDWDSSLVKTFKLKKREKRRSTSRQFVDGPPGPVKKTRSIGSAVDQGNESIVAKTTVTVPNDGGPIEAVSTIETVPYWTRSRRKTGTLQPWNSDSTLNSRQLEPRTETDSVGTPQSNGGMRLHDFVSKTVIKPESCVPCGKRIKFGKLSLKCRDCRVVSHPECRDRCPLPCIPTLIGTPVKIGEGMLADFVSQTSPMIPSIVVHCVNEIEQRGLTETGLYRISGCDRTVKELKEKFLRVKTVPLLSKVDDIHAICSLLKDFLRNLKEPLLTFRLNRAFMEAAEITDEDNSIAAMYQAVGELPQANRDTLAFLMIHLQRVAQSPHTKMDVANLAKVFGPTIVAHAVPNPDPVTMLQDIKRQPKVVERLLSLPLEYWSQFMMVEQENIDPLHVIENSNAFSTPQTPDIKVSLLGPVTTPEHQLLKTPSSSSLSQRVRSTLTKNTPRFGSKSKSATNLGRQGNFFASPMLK
# H9c2 = test: cells; assay type: functional, cell-based; conditions: Rattus norvegicus, H9c2, Myocardium;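 also: confirmatory concentration-response retest of ultra-high-throughput screening hits for modulation of myocardial damage; cell death induced by hydrogen peroxide oxidative stress; compound pretreatment for 60 min then peroxide exposure for 2 h; potency is for protecting the cells against peroxide damage rather than for killing them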
# [5] = Trypanosoma cruzi growth suppression in host cells – NIH3T3 host cells, beta-gal luminescence, confirmation (AID 2044); assay type: functional, cell-based;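 also: intracellular parasites grown in NIH/3T3 mouse fibroblasts as host cells; luminescent beta-galactosidase reporter signal from transgenic T. cruzi replicating inside host cells; inhibitors lower the luminescence signal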
# [6] = NIH3T3 cell viability loss – ATP luminescence, mouse fibroblasts, counter-screen, dose response (AID 2010); assay type: functional, cell-based;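 also: cells exposed to compound for about 90 hours before reading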
# Paired box protein Pax-8 = Paired box protein Pax-8 (Homo sapiens, UniProt Q06710); test: PAX8 transcriptional activity inhibition in RMG-I – RMG-I cells, luciferase, cherry-pick, dose response (AID 687027); assay type: functional, cell-based;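 also: luciferase reporter driven by Pax8 target thyroperoxidase promoter measured by SteadyGlo luminescence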
# Sequence of Paired box protein Pax-8 (Q06710 whole entry): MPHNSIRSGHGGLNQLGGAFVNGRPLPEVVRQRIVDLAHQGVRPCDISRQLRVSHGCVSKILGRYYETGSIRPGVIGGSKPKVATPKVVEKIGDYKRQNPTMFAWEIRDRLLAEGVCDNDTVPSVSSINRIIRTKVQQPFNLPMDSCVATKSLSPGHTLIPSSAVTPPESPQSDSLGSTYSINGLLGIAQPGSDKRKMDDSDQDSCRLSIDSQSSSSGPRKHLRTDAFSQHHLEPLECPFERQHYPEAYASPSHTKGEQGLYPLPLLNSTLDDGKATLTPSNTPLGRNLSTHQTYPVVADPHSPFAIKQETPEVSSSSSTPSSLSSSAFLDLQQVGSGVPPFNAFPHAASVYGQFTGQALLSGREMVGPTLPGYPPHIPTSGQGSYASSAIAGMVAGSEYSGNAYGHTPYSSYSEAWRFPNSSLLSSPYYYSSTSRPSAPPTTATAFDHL
# Sequence of Cytochrome P450 2C9 (P11712 whole entry): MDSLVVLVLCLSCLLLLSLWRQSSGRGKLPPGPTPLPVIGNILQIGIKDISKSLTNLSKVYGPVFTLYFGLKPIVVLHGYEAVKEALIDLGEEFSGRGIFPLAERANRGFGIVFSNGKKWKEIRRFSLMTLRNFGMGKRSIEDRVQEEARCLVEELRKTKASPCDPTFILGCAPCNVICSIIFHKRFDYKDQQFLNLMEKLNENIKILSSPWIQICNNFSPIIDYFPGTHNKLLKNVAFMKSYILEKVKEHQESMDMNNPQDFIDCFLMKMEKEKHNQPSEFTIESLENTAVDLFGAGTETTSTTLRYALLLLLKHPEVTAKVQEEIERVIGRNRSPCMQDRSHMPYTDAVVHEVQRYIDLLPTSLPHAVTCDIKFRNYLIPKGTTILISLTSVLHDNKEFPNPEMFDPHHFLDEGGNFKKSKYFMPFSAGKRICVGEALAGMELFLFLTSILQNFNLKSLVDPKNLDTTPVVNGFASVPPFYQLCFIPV
# T1 sequence (P49327 whole entry): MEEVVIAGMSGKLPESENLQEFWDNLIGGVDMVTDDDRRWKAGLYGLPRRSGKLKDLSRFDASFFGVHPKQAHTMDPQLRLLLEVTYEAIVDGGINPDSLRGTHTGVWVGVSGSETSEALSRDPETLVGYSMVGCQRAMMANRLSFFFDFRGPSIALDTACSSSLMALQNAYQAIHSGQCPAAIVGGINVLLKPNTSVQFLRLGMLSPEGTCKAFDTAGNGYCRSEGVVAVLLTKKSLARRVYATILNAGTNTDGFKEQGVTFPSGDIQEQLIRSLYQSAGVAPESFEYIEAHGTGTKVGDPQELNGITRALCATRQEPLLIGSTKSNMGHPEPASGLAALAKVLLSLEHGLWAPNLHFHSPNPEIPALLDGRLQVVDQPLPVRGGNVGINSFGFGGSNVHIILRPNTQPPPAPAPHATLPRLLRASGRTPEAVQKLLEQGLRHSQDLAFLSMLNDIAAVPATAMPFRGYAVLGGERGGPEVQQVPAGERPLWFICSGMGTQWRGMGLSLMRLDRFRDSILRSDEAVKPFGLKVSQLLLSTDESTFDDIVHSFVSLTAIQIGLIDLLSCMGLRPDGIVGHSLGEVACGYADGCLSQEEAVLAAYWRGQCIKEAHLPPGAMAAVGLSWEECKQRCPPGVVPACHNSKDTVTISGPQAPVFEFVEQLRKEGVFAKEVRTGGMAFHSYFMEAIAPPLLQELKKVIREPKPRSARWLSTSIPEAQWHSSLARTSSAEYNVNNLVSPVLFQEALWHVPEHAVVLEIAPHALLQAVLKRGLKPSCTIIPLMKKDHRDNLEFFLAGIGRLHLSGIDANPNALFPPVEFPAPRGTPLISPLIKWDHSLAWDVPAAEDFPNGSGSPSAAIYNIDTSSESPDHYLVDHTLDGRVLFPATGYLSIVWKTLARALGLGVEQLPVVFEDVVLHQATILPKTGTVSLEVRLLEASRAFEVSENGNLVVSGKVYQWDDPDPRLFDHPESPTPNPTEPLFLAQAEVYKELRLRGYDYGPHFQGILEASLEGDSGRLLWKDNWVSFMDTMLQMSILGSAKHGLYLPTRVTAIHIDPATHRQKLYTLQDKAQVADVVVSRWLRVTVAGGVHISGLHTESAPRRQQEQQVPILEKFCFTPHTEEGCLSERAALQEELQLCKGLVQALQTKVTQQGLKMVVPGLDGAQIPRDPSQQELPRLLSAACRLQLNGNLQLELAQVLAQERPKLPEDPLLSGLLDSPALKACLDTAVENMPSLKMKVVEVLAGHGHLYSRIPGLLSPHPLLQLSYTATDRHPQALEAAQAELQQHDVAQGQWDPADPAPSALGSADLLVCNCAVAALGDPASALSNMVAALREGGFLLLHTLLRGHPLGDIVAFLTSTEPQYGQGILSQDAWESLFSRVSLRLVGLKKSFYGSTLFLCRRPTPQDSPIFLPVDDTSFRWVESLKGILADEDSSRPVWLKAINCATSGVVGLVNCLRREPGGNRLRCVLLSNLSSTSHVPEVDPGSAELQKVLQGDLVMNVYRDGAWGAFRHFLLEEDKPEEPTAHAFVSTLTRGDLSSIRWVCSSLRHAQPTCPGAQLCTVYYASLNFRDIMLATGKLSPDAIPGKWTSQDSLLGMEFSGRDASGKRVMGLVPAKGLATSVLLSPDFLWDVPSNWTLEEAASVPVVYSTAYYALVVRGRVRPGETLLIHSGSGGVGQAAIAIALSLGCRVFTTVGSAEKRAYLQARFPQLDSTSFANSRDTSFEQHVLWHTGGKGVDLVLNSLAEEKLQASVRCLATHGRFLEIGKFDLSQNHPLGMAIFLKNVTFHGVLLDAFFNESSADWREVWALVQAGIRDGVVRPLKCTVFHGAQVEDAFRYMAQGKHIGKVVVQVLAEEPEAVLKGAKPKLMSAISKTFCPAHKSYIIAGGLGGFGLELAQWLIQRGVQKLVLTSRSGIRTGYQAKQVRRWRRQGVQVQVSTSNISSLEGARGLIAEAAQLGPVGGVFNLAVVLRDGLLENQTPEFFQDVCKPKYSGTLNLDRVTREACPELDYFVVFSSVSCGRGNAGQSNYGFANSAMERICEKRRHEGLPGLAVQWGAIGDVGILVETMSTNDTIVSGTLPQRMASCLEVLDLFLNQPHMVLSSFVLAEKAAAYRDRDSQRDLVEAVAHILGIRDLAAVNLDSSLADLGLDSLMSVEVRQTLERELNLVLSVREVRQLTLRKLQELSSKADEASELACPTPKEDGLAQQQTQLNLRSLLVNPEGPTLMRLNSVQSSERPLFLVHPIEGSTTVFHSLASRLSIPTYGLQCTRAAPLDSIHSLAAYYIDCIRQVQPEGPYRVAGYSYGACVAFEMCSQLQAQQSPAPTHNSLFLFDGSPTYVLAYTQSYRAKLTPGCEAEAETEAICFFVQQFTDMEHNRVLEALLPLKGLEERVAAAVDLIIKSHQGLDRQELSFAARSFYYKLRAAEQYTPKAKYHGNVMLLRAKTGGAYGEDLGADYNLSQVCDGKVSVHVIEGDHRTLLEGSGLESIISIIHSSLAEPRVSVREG
# Sequence of Cytochrome P450 2C19 (P33261 whole entry): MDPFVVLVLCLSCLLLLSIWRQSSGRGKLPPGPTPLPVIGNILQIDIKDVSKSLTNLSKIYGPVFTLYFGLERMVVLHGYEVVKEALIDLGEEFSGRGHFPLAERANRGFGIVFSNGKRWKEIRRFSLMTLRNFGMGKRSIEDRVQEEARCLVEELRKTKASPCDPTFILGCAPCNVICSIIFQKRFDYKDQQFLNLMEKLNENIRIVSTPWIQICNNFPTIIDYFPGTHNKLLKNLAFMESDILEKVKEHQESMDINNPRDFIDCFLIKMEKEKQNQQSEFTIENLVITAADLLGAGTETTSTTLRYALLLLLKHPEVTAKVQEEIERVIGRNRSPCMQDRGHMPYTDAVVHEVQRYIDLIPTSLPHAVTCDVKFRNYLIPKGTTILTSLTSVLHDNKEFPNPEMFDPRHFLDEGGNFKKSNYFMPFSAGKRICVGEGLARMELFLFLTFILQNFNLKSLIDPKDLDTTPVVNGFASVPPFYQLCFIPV
# Sequence of Cytochrome P450 2D6 (P10635 whole entry): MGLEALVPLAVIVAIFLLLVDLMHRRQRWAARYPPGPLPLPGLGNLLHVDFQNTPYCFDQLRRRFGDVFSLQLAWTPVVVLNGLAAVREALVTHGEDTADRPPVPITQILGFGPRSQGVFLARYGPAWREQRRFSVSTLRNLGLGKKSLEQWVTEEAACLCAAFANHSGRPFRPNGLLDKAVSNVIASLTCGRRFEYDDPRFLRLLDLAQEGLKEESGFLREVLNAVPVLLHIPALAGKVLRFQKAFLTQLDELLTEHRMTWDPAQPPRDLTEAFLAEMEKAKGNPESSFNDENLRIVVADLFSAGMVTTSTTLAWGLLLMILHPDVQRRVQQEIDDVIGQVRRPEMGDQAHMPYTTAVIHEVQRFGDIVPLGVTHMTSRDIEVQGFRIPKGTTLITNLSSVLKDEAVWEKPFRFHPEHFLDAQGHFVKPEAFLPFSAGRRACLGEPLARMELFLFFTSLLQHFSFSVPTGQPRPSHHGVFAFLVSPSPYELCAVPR
# Sequence of Cytochrome P450 3A4 (P08684 whole entry): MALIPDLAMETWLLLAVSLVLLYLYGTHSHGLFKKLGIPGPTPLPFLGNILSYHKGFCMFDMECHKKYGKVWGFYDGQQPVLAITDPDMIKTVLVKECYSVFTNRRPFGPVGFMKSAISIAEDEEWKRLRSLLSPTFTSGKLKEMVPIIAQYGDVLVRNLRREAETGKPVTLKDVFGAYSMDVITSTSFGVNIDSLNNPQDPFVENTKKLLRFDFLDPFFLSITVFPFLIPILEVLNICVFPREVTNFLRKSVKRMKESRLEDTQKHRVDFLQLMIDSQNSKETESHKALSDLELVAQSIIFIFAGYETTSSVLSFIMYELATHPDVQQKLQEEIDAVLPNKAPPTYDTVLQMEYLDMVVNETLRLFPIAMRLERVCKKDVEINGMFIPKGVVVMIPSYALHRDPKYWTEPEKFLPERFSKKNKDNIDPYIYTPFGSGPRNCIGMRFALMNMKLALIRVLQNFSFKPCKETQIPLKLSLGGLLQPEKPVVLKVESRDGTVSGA
compound,measurement,setting,value
CC(C)(C)OC(=O)NCc1ccc(CNC(=O)c2[nH]cnc2C(=O)NCC(=O)OCc2ccccc2)cc1,IC50,Fatty acid synthase [1],6.98 µM (active)
same,IC50,Fatty acid synthase [2],4.49 µM (active)
O=C(Oc1ccccc1)N1CCC[C@@]2(CCN(Cc3ccccc3)C2)C1,AC50,Cytochrome P450 2C19,20 µM (inconclusive)
same,AC50,Cytochrome P450 2D6,20 µM (inconclusive)
same,AC50,Cytochrome P450 1A2,15.8 µM (inconclusive)
same,AC50,Cytochrome P450 3A4,15.8 µM (inconclusive)
same,AC50,Cytochrome P450 2C9,20 µM (inconclusive)
C[C@@H]1[C@H]2C=C[C@@H]1[C@@H](c1c3ccc(=O)c(O)c-3oc3c(O)c(O)ccc13)[C@@H]2C(=O)O,AC50,Cytochrome P450 2C19,3.98 µM (inconclusive)
same,AC50,Cytochrome P450 2C9,7.94 µM (inconclusive)
C[C@@H]1Oc2ccc(C(=O)C[C@@H](C(=O)O)c3ccc4c(c3)OCO4)cc2O1,AC50,Cytochrome P450 2C19,5.01 µM (inconclusive)
same,AC50,Cytochrome P450 1A2,0.794 µM (inconclusive)
same,AC50,Cytochrome P450 2C9,6.31 µM (inconclusive)
Nc1nn2c(-c3ccccc3)cc(O)nc2c1N=Nc1ccc(O)cc1,AC50,[3],3.91 µM (active)
same,EC50,Protein RecA,1.88 µM (active)
same,IC50,[4],60.1 µM (active)
Cc1cccc(NC(=O)c2cc([N+](=O)[O-])ccc2N2CCN(C)CC2)c1,IC50,Fatty acid synthase [1],8.93 µM (active)
same,IC50,Fatty acid synthase [2],11.3 µM (active)
C[C@@H](NC(=O)c1[nH]cnc1C(=O)NCC(=O)OCc1ccccc1)c1ccccc1,IC50,H9c2,> 79 µM (inactive)
COc1ccccc1NC(=O)c1ccccc1S(=O)(=O)c1ccc([N+](=O)[O-])cc1,IC50,Fatty acid synthase [1],14.9 µM (active)
same,IC50,Fatty acid synthase [2],8.19 µM (active)
CC(C)n1nnnc1SCC(=O)NCc1ccc2c(c1)OCO2,AC50,Cytochrome P450 2D6,25.1 µM (inconclusive)
same,AC50,Cytochrome P450 1A2,12.6 µM (inconclusive)
same,AC50,Cytochrome P450 2C9,25.1 µM (inconclusive)
O=C(NCCCc1ccccc1)c1ccc([N+](=O)[O-])cc1Cl,IC50,Fatty acid synthase [1],1.25 µM (active)
same,IC50,Fatty acid synthase [2],1.31 µM (active)
CCN1CCN(CCCOc2ccc(Cl)cc2Br)CC1,EC50,[5],1.6 µM (active)
same,EC50,[6],32.5 µM (active)
same,IC50,[4],68.8 µM (active)
Cc1ccc(C)c(CN2C(=O)C3CCCN3c3ccc(S(=O)(=O)N4CCOCC4)cc32)c1 (configuration not stated),AC50,Cytochrome P450 2C19,6.31 µM (inconclusive)
same,AC50,Cytochrome P450 2C9,14.1 µM (inconclusive)
Cc1c(Br)c([N+](=O)[O-])nn1CC(=O)Nc1ccc(C(C)C)cc1,IC50,Fatty acid synthase [1],3.18 µM (active)
same,IC50,Fatty acid synthase [2],6.92 µM (active)
CN1CCN(c2ncc3nc(CCc4ccccc4)c(=O)n(Cc4ccc(F)cc4)c3n2)CC1,AC50,Cytochrome P450 2C9,12.6 µM (inconclusive)
Cc1c(NC(=O)C2CCN(S(=O)(=O)c3ccc(Cl)cc3)CC2)c(=O)n(-c2ccccc2)n1C,AC50,Cytochrome P450 2C9,14.1 µM (inconclusive)
COc1ccc(NC(=O)CN(c2ccc([N+](=O)[O-])cc2)S(=O)(=O)c2ccccc2)c(OC)c1,IC50,Fatty acid synthase [1],4.43 µM (active)
same,IC50,Fatty acid synthase [2],5.78 µM (active)
CCOc1ccccc1C1C(C#N)=C(N)Oc2[nH]nc(CC)c21 (configuration not stated),AC50,[3],13.4 µM (active)
same,EC50,Protein RecA,7.04 µM (active)
same,AC50,Cytochrome P450 3A4,7.08 µM (inconclusive)
same,AC50,Cytochrome P450 2C9,17.8 µM (inconclusive)
O=C(Nc1ccc(Cc2ccncc2)cc1)c1ccc(Cl)c([N+](=O)[O-])c1,IC50,Fatty acid synthase [1],10.2 µM (active)
same,IC50,Fatty acid synthase [2],10.9 µM (active)
COc1ccc(CCNC(=O)c2nnc(O)c3ccccc23)cc1,AC50,Cytochrome P450 2C19,2.24 µM (inconclusive)
same,AC50,Cytochrome P450 2D6,5.01 µM (inconclusive)
same,AC50,Cytochrome P450 1A2,7.08 µM (inconclusive)
same,AC50,Cytochrome P450 3A4,7.08 µM (inconclusive)
same,AC50,Cytochrome P450 2C9,3.16 µM (inconclusive)
O=[N+]([O-])c1ccc(SNc2ccccc2)c([N+](=O)[O-])c1,IC50,Fatty acid synthase [1],10.4 µM (active)
same,IC50,Fatty acid synthase [2],9.38 µM (active)
CC(=O)Nc1cc(-c2cccc(C(=O)N(C)C)c2)cn2c(-c3ccc(C(C)=O)cc3)cnc12,IC50,H9c2,> 79 µM (inactive)
O=C(N/N=C/c1coc2ccc(Cl)cc2c1=O)c1ccc(O)cc1,AC50,[3],> 380 µM (inactive)
same,EC50,Protein RecA,16.1 µM (active)
same,IC50,Fatty acid synthase [1],6.64 µM (active)
same,IC50,Fatty acid synthase [2],4.84 µM (active)
C[C@H](CO)N1C[C@H](C)[C@@H](CN(C)Cc2ccc(Cl)c(Cl)c2)OCCCC[C@H](C)Oc2ccc(NC(=O)Nc3ccccc3)cc2C1=O,AC50,Paired box protein Pax-8,8.65 µM (active)
CCn1cc(C(=O)N/N=C(/C)c2ccc(F)cc2)c(=O)c2cc(F)c(N3CCCC3)cc21,AC50,Cytochrome P450 2C9,10 µM (inconclusive)
CCn1c(-c2ccccc2)cs/c1=N\c1ccc(O)cc1,IC50,[4],31.7 µM (active)
CCCN(/C=N/c1sc2c(c1C#N)CCCCC2)CCC,AC50,Cytochrome P450 2D6,15.8 µM (inconclusive)
same,AC50,Cytochrome P450 2C9,12.6 µM (inconclusive)
CC1(C)OC(=O)C(/C=N/CC(O)c2ccccc2)=C(O)O1 (configuration not stated),AC50,Cytochrome P450 1A2,25.1 µM (inconclusive)
same,AC50,Cytochrome P450 2C9,31.6 µM (inconclusive)
Nc1nc2c(ncn2[C@@H]2O[C@H](CO)[C@@H](O)[C@H]2O)c(=S)[nH]1 [THIOGUANOSINE],AC50,Paired box protein Pax-8,1.16 µM (active)
